The subject of data set [1] is transfer of LDL-derived cholesterol from lysosomes to ER in CHO-7 cells. The data set is classed as cell-based, hamster.
In a further data set the target is NPC1 (Cricetulus griseus, UniProt Q9JLG3). The data set is classed as binding, hamster.
For data set [2], the system named is lysosomal degradation of 125I-LDL in CHO-7 cells. The data set is classed as cell-based, hamster.
Another data set relates to ER membranes. The format is biochemical.
For data set [3], the system named is SREBP-2 cleavage in CHO-7 cells. The data set is classed as cell-based, hamster.
Data set [4] deals with cholesterol esterification stimulated by 25-hydroxycholesterol. The data set is classed as cell-based.
In data set [5] the test system is cholesterol egress from lysosomes. The following applies: cited from earlier work.
The next data set relates to NTD of recombinant NPC1. The conditions noted are these: cited from earlier work.
The target in a further data set is wild-type human NPC1 (Homo sapiens, UniProt O15118). The format is binding.
For data set [6], the system named is TR-4139 cells (CHO-7 cells stably expressing excess human NPC1). The format is cell-based, hamster.
The subject of data set [7] is Ebola virus. The conditions noted are these: cited from earlier work.
Data set [8] concerns Ebola virus. The format is cell-based.
A further data set deals with NPC1L1 (Homo sapiens, UniProt Q9UHC9). The data set is classed as binding.
A further data set has as its target purified NPC1 (Homo sapiens, UniProt O15118). The data set is classed as binding.
[9] abbreviates: read-out: Inhibitory constant (Ki): concentration inhibiting incorporation of [14C]oleate into cholesteryl [14C]oleate by 50%.
[10] abbreviates: read-out: Ki for inhibition of esterification of LDL-derived cholesterol.

Structures are written as SMILES. Read-outs that look alike come from different tables or passages of the source. Bounds are passed on as bounds.

The source of these data is article PMC4718804 (eLife, 2015).

As usually defined, the pKa is the negative logarithm of the acid dissociation constant. Low readings indicate a group that gives up its proton readily, high ones a group that holds its proton tightly.

NPC1, sequence (Q9JLG3 23-1277 limits assumed): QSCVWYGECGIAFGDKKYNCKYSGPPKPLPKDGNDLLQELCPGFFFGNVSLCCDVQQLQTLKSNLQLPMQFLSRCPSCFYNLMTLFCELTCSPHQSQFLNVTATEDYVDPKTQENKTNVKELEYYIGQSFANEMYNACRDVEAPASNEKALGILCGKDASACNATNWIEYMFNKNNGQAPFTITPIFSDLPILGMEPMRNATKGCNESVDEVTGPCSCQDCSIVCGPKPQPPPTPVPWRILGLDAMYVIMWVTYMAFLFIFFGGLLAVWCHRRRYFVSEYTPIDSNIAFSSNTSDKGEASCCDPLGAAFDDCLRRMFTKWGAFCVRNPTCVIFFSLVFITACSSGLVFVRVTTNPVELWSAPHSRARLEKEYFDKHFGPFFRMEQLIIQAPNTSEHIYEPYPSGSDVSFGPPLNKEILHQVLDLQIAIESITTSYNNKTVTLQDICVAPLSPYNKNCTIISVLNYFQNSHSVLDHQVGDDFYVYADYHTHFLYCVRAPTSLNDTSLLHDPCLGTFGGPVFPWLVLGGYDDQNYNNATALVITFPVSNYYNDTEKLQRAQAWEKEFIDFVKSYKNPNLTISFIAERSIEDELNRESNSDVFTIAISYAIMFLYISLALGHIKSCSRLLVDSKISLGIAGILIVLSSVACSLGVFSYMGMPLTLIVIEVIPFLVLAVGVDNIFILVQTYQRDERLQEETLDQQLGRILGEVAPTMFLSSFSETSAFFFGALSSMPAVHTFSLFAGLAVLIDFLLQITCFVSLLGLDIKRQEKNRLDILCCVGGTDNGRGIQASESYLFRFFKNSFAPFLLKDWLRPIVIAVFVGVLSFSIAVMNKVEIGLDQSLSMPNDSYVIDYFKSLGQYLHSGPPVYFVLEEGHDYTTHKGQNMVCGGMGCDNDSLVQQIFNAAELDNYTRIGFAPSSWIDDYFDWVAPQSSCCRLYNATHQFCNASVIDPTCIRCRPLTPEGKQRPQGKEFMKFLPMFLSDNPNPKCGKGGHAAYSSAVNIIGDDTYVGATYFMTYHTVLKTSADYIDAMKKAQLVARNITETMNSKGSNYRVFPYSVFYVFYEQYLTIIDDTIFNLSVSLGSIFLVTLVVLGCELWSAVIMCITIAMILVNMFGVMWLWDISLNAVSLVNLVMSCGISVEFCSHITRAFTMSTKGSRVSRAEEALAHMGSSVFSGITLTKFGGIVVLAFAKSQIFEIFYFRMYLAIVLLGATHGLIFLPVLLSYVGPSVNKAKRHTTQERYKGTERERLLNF
wild-type human NPC1, sequence (O15118 23-1278): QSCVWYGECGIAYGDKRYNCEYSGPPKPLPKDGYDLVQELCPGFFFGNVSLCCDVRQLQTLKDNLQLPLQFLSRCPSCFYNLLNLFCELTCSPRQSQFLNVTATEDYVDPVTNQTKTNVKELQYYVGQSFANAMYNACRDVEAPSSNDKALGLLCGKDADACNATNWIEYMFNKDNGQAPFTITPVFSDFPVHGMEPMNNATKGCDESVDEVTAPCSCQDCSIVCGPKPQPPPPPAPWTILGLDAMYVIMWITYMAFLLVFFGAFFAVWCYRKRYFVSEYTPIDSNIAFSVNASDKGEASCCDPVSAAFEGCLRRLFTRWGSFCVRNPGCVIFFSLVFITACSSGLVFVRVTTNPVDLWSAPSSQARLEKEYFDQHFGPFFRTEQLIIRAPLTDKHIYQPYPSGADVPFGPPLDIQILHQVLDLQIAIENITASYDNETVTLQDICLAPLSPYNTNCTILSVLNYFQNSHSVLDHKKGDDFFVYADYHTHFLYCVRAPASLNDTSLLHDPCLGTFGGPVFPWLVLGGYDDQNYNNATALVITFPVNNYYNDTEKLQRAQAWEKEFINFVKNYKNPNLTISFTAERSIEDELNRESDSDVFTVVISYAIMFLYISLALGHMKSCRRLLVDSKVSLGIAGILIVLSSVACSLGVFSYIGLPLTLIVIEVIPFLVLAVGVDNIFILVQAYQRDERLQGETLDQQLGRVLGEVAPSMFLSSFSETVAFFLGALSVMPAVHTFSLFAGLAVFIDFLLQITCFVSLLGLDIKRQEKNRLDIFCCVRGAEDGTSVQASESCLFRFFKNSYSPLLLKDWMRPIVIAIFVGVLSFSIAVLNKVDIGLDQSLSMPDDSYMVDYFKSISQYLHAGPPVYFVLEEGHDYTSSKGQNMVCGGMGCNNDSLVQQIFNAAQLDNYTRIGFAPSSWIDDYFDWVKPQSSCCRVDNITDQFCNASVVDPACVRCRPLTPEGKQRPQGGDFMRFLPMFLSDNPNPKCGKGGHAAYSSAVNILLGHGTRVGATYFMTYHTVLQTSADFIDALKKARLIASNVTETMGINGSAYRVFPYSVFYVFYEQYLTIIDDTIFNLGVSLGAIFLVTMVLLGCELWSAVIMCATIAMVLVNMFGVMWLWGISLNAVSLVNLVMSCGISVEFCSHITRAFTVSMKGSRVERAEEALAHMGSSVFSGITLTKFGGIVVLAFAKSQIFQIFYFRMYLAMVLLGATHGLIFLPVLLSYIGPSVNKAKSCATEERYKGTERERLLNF
purified NPC1, sequence (O15118 23-1278): as above
NPC1L1, sequence (Q9UHC9 22-1359): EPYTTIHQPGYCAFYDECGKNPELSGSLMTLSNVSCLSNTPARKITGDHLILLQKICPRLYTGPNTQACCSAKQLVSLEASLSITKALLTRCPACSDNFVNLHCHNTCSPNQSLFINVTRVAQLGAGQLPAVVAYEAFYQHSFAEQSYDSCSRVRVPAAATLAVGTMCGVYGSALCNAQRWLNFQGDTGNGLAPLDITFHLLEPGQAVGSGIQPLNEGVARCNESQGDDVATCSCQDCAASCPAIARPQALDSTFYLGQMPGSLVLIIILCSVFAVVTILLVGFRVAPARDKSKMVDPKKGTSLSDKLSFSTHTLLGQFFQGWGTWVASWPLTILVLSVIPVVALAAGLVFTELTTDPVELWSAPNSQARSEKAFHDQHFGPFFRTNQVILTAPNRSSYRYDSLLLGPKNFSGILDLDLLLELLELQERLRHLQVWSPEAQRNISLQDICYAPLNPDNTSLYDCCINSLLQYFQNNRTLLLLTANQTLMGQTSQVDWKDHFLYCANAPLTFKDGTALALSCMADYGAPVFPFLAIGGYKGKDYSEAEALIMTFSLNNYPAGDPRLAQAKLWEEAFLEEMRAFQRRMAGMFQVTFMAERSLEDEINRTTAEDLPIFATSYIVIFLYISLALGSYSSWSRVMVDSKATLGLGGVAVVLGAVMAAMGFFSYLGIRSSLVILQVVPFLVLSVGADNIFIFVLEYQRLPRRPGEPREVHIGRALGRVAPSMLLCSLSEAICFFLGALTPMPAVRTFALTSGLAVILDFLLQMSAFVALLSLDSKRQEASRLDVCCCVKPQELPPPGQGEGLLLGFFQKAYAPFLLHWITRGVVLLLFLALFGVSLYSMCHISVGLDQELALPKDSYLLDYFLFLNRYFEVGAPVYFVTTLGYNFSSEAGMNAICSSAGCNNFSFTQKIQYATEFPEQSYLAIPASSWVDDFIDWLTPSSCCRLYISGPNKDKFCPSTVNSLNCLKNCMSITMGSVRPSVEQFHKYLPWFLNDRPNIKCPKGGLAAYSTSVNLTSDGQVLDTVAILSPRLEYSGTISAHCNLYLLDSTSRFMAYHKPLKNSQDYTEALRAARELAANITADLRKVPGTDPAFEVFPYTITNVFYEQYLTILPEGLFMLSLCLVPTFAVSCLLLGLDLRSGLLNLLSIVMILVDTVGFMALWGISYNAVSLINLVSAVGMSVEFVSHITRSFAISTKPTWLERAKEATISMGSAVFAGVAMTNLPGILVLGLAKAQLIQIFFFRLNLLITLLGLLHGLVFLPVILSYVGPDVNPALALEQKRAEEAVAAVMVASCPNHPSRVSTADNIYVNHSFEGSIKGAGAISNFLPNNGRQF

On to `CCCN(CCOC1CCC2(C)C(=CCC3C4CCC(=O)C4(C)CCC32)C1)Cc1cn(-c2cccnc2)nn1` (stereo not drawn) [compound B], for which the Ki in [1] (setting [9]) stood at 0.01 µM. The “competition of U-X crosslinking to NPC1, immunoprecipitation” value (shortened to “competition of U-X crosslinking to NPC1”) on NPC1 is given as “blocked”.
On to `CCN(CC)CCCC(C)Nc1ccnc2cc(Cl)ccc12` (stereo not drawn) [chloroquine, reference compound], for which, in [1], the “effect on release of LDL-derived cholesterol (cholesterol esterification)” value is recorded as “blocked”. Besides, the “effect on degradation of 125I-LDL (125I-monoiodotyrosine released into medium)” value (“effect on degradation of 125I-LDL” for short) in data set [2] is “blocked the degradation”.
As to `CCC(CC)CCOC1CCC2(C)C(=CCC3C4CCC(=O)C4(C)CCC32)C1` (stereo not drawn) [compound D], the Ki in data set [1] (setting [9]) stood at 4.7 µM. The “competition of U-X crosslinking to NPC1” value at NPC1 is “not inhibited”.
On to `CCCN(CCOC1CCC2(C)C(=CCC3C4CCC(=O)C4(C)CCC32)C1)Cc1cn(CCCCCCOC(=O)CCCCC2SCC3NC(=O)NC32)nn1` (stereo not drawn) [compound C], for which, in data set [1] (setting [9]), the Ki stood at 0.02 µM. In addition, the “competition of U-X crosslinking to NPC1” value at NPC1 was “blocked”.
Take `CCN(CC)CCOC1CCC2(C)C(=CCC3C4CCC(=O)C4(C)CCC32)C1` (stereo not drawn) [U18666A, 3-beta-[2-(diethylamino)ethoxy]androst-5-en-17-one, reference compound]: in the data set with ER membranes, the “effect on cholesteryl [14C]oleate formation when cholesterol is added to ER membranes in vitro” value is given as “does not inhibit”. In addition, the “effect on the FCS-induced reduction of nuclear SREBP-2” value (“effect on the FCS-induced reduction” below) in [3] was “prevented this reduction”. In [1], the “concentration at which transport of LDL-derived cholesterol from lysosomes to ER is inhibited (as low as)” value is given as 0.03 µM and the “effect on lysosomal exit of cholesterol (incorporation of [14C]oleate into cholesteryl [14C]oleate)” value is on record as “inhibited the lysosomal exit of cholesterol”. In addition, the Ki in data set [1] (setting [9]) amounted to 0.03 µM. Also, the Ki in data set [1] (setting [10]) is 0.02 µM. Besides, the “effect on cholesterol esterification stimulated by 25-hydroxycholesterol” value in data set [4] was “did not block”. Moreover, the “fold more potent than imipramine” value in data set [5] is given as “more than 100 fold”. In addition, the “effect on binding of [3H]25-hydroxycholesterol to the NTD of recombinant NPC1” value in the data set with NTD of recombinant NPC1 was “does not block binding”. The same compound came in with a pKa in “physchem” of 9.41. Also, at wild-type human NPC1, the “competition of U-X crosslinking to transfected wild-type NPC1” value is listed as “competed”. Besides, at NPC1, the “competition of U-X crosslinking to NPC1” value is “blocked” and the “competition of U-X crosslinking to the 190-kDa protein (NPC1), in-gel fluorescence” value is listed as “disappeared”. In addition, the “rise of the threshold for U18666A inhibition by overexpression of NPC1” value in [6] is reported as “more than 100 fold”. Besides, the Ki in data set [6] (setting [10]) stood at 2.7 µM. Moreover, in the data set with Ebola virus [7], the “concentrations of U18666A required to inhibit Ebola virus infection” value is 3 to 12 µM. In addition, in [2], the “effect on degradation of 125I-LDL” value was “did not inhibit degradation”. Besides, the “fold higher concentration required for inhibition of Ebola than for inhibition of cholesterol export” value with Ebola virus [8] turned out to be 100 fold.
In the case of `CCN(CC)CCOC1CCCCC1` [compound E], the Ki in data set [1] (setting [9]) was > 10 µM. Further, the “competition of U-X crosslinking to NPC1” value on NPC1 is “not inhibited”.
As for `C#CCOc1ccc(C(=O)c2ccc(C(=O)OCCN(CC)CCOC3CCC4(C)C(=CCC5C6CCC(=O)C6(C)CCC54)C3)cc2)cc1` (stereo not drawn) [U-X], in [3], the “effect on the FCS-induced reduction” value is listed as “blocked”. Moreover, the “crosslinking to NPC1L1” value on NPC1L1 is recorded as “did not crosslink”. In data set [1], the “effect on lysosomal exit of cholesterol (incorporation of [14C]oleate into cholesteryl [14C]oleate)” value is “inhibited the lysosomal exit of cholesterol”. Besides, the Ki in data set [1] (setting [9]) is 0.06 µM. Also, the “fluorescent NPC1 after UV crosslinking of U-X” value on wild-type human NPC1 is “detected”. The “crosslinking to NPC1” value at NPC1 was “crosslinks”. The “effect on degradation of 125I-LDL” value in data set [2] is on record as “did not inhibit degradation”. On purified NPC1, the “crosslinking to purified NPC1” value is recorded as “unable to crosslink”.
`CCC(CC)CCOC1CCC2(C)C(=CCC3C2CCC2(C)C3CCC2N(C)C)C1` (stereo not drawn) [compound A]: the “effect on the FCS-induced reduction” value in data set [3] was “no activity”. In [1], the “fold less active than U18666A in the cholesterol esterification assay” value is recorded as ~100 fold. Also, the Ki in data set [1] (setting [9]) is 4.5 µM. For the same compound, the pKa in “physchem” was found to be 10.2. Further, at NPC1, the “competition of U-X crosslinking to NPC1” value is given as “not inhibited” and the “competition of U-X crosslinking to the 190-kDa protein (NPC1), in-gel fluorescence” value is recorded as “not”.
